Results: paper PMC2748827 (Nature, 2009)

Tested on: A/Kawasaki/UTK-4/09 (H1N1)
Format: cell-based, influenza A virus (H1N1)

## CCOC(=O)C1=C[C@@H](OC(CC)CC)[C@H](NC(C)=O)[C@@H](N)C1 [oseltamivir]
  susceptibility of virus in cell culture (in words): resistance
